According to PubChem BioAssay (NCI):
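Interpolation was linear, between the two tested concentrations surrounding the appropriate level; five concentrations were tested over 48 hours in 96-well plates. TGI is the concentration that stops growth completely.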

What was measured:
Assay in all cases: growth of human tumour cells (NCI), 48 h
[1] = tested on: M14 melanoma
[2] = tested on: MOLT-4 leukemia
[3] = tested on: DU-145 prostate
[4] = tested on: T-47D breast
[5] = tested on: UACC-257 melanoma
[6] = tested on: SK-MEL-5 melanoma
[7] = tested on: TK-10 renal
[8] = tested on: SF-268 CNS
[9] = tested on: NCI-H23 lung
[10] = tested on: NCI-H226 lung
[11] = tested on: RPMI-8226 leukemia
[12] = tested on: NCI/ADR-RES ovarian
[13] = tested on: HCC-2998 colon
[14] = tested on: NCI-H460 lung
[15] = tested on: K-562 leukemia
[16] = tested on: SF-295 CNS
[17] = tested on: UACC-62 melanoma
[18] = tested on: BT-549 breast
[19] = tested on: OVCAR-3 ovarian
[20] = tested on: 786-0 renal
[21] = tested on: HOP-92 NSCLC
[22] = tested on: OVCAR-4 ovarian
[23] = tested on: A549 NSCLC
[24] = tested on: SK-OV-3 ovarian
[25] = tested on: HL-60(TB) leukemia
[26] = tested on: OVCAR-8 ovarian
[27] = tested on: U251 CNS
[28] = tested on: SK-MEL-2 melanoma
[29] = tested on: ACHN renal
[30] = tested on: RXF 393 renal
[31] = tested on: MCF7 breast
[32] = tested on: CCRF-CEM leukemia
[33] = tested on: HT29 colon
[34] = tested on: MALME-3M melanoma
[35] = tested on: SW-620 colon
[36] = tested on: KM12 colon
[37] = tested on: SNB-75 CNS
[38] = tested on: SK-MEL-28 melanoma
[39] = tested on: EKVX NSCLC
[40] = tested on: SNB-19 CNS
[41] = tested on: HS 578T breast
[42] = tested on: OVCAR-5 ovarian
[43] = tested on: HOP-62 NSCLC
[44] = tested on: COLO 205 colon
[45] = tested on: SF-539 CNS
[46] = tested on: MDA-MB-435
[47] = tested on: PC-3 prostate
[48] = tested on: HCT-15 colon
[49] = tested on: UO-31 renal
[50] = tested on: MDA-MB-231 breast
[51] = tested on: IGROV1 ovarian
[52] = tested on: LOX IMVI melanoma
[53] = tested on: MDA-N
[54] = tested on: A498 renal
[55] = tested on: CAKI-1 renal
[56] = tested on: SN12C renal
[57] = tested on: HCT-116 colon
[58] = tested on: SR leukemia
[59] = tested on: NCI-H522 lung

**Q.** With CC1(c2ccc(F)cc2)CC(c2ccc(F)cc2)=C(C#N)C(=C(C#N)C#N)N1 (centres undefined) as the molecule, how does the TGI [1] read?
**A.** Its TGI is 35.6 µM.

**Q.** What about the TGI [2] of the same molecule?
**A.** The TGI was 34.8 µM.

**Q.** And the TGI [3]?
**A.** The TGI was 28.5 µM.

**Q.** And the TGI [4]?
**A.** Its TGI is 31.7 µM.

**Q.** And the TGI [5]?
**A.** Its TGI is 28.9 µM.

**Q.** And the TGI [6]?
**A.** Its TGI is 28.5 µM.

**Q.** And the TGI [7]?
**A.** The TGI was 32.2 µM.

**Q.** And the TGI [8]?
**A.** Its TGI is 37 µM.

**Q.** And the TGI [9]?
**A.** Its TGI is 36.5 µM.

**Q.** What about the TGI [10] of the same molecule?
**A.** Its TGI is 82.1 µM.

**Q.** What about the TGI [11] of the same molecule?
**A.** The TGI was greater than 100 µM.

**Q.** And the TGI [12]?
**A.** Its TGI is 48.4 µM.

**Q.** What about the TGI [13] of the same molecule?
**A.** The TGI was 28.2 µM.

**Q.** What about the TGI [14] of the same molecule?
**A.** The TGI was 38.2 µM.

**Q.** And the TGI [15]?
**A.** Its TGI is 38.1 µM.

**Q.** What about the TGI [16] of the same molecule?
**A.** The TGI was 37.1 µM.

**Q.** What about the TGI [17] of the same molecule?
**A.** The TGI was 28.1 µM.

**Q.** What about the TGI [18] of the same molecule?
**A.** The TGI was 53 µM.

**Q.** And the TGI [19]?
**A.** Its TGI is 19.4 µM.

**Q.** And the TGI [20]?
**A.** The TGI was 29.3 µM.

**Q.** And the TGI [21]?
**A.** The TGI was 34.9 µM.

**Q.** And the TGI [22]?
**A.** The TGI was 31.3 µM.

**Q.** And the TGI [23]?
**A.** The TGI was 41.7 µM.

**Q.** And the TGI [24]?
**A.** The TGI was 37.3 µM.

**Q.** And the TGI [25]?
**A.** Its TGI is 30.7 µM.

**Q.** What about the TGI [26] of the same molecule?
**A.** The TGI was 54 µM.

**Q.** And the TGI [27]?
**A.** Its TGI is 31.5 µM.

**Q.** And the TGI [28]?
**A.** The TGI was 34.4 µM.

**Q.** And the TGI [29]?
**A.** The TGI was 30.2 µM.

**Q.** And the TGI [30]?
**A.** The TGI was 28.3 µM.

**Q.** And the TGI [31]?
**A.** Its TGI is 32.5 µM.

**Q.** And the TGI [32]?
**A.** The TGI was 64.5 µM.

**Q.** What about the TGI [33] of the same molecule?
**A.** Its TGI is 32.1 µM.

**Q.** What about the TGI [34] of the same molecule?
**A.** Its TGI is 37.2 µM.

**Q.** What about the TGI [35] of the same molecule?
**A.** Its TGI is 62.1 µM.

**Q.** What about the TGI [36] of the same molecule?
**A.** Its TGI is 30.1 µM.

**Q.** What about the TGI [37] of the same molecule?
**A.** The TGI was 34.2 µM.

**Q.** What about the TGI [38] of the same molecule?
**A.** Its TGI is 47.3 µM.

**Q.** And the TGI [39]?
**A.** Its TGI is 31.5 µM.

**Q.** What about the TGI [40] of the same molecule?
**A.** Its TGI is 35.1 µM.

**Q.** What about the TGI [41] of the same molecule?
**A.** Its TGI is 64.1 µM.

**Q.** What about the TGI [42] of the same molecule?
**A.** Its TGI is 38.5 µM.

**Q.** And the TGI [43]?
**A.** The TGI was 38.6 µM.

**Q.** And the TGI [44]?
**A.** The TGI was 27.9 µM.

**Q.** What about the TGI [45] of the same molecule?
**A.** The TGI was 78.4 µM.

**Q.** And the TGI [46]?
**A.** Its TGI is 32 µM.

**Q.** What about the TGI [47] of the same molecule?
**A.** Its TGI is 31.4 µM.

**Q.** And the TGI [48]?
**A.** Its TGI is 31.7 µM.

**Q.** And the TGI [49]?
**A.** The TGI was 32 µM.

**Q.** And the TGI [50]?
**A.** The TGI was 43.9 µM.

**Q.** And the TGI [51]?
**A.** Its TGI is 32.3 µM.

**Q.** And the TGI [52]?
**A.** Its TGI is 38.6 µM.

**Q.** And the TGI [53]?
**A.** The TGI was 34.3 µM.

**Q.** What about the TGI [54] of the same molecule?
**A.** The TGI was 35.8 µM.

**Q.** What about the TGI [55] of the same molecule?
**A.** The TGI was 30.2 µM.

**Q.** What about the TGI [56] of the same molecule?
**A.** The TGI was 34.5 µM.

**Q.** And the TGI [57]?
**A.** The TGI was 30.5 µM.

**Q.** What about the TGI [58] of the same molecule?
**A.** The TGI was 42.2 µM.

**Q.** What does the source list for COCc1nc2c(OC)cc(-c3nc4nc(N5CCN(C)CC5)ccc4[nH]3)c(OC)c2[nH]1?
**A.** TGI [1]: 42.4 µM; TGI [2]: > 100 µM; TGI [3]: > 100 µM; TGI [4]: > 100 µM; TGI [5]: 61 µM; TGI [6]: 38.8 µM; TGI [7]: > 100 µM; TGI [8]: > 100 µM; TGI [9]: > 100 µM; TGI [10]: > 100 µM; TGI [12]: > 100 µM; TGI [13]: > 100 µM; TGI [14]: > 100 µM; TGI [15]: > 100 µM; TGI [16]: > 100 µM; TGI [17]: > 100 µM; TGI [18]: > 100 µM; TGI [19]: 83 µM; TGI [20]: > 100 µM; TGI [21]: > 100 µM; TGI [22]: > 100 µM; TGI [23]: > 100 µM; TGI [24]: > 100 µM; TGI [25]: > 100 µM; TGI [26]: > 100 µM; TGI [27]: > 100 µM; TGI [29]: > 100 µM; TGI [30]: > 100 µM; TGI [31]: > 100 µM; TGI [32]: 75.9 µM; TGI [33]: > 100 µM; TGI [34]: 44.2 µM; TGI [35]: > 100 µM; TGI [36]: > 100 µM; TGI [37]: > 100 µM; TGI [38]: > 100 µM; TGI [39]: > 100 µM; TGI [40]: > 100 µM; TGI [41]: > 100 µM; TGI [59]: > 100 µM; TGI [42]: > 100 µM; TGI [43]: > 100 µM; TGI [44]: > 100 µM; TGI [46]: > 100 µM; TGI [47]: > 100 µM; TGI [48]: > 100 µM; TGI [49]: > 100 µM; TGI [50]: > 100 µM; TGI [51]: > 100 µM; TGI [52]: > 100 µM; TGI [53]: > 100 µM; TGI [54]: > 100 µM; TGI [55]: > 100 µM; TGI [56]: > 100 µM; TGI [57]: > 100 µM; TGI [58]: > 100 µM
